Assay results: paper PMC8544286, “Screening and Identification of a Novel Anti-tuberculosis Compound That Targets Deoxyuridine 5′-Triphosphate Nucleotidohydrolase” (Frontiers in Microbiology, 2021)
Values after ≈ are worked out from the molar mass of the structure shown. Like-named read-outs stand apart in the source and are kept apart here.

What was measured:
[1] = tested on: sensitive strain STB-FJ05349; assay: Microplate alamar blue assay (MABA), STB-FJ05349; type: cell-based; conditions: Mycobacterium tuberculosis, STBFJ05349, 168 h
[2] = molecular target: T1, human dUTPase (Homo sapiens, UniProt P33316); assay: biochemical
[3] = tested on: sensitive strain STB-FJ05060; assay: Microplate alamar blue assay (MABA), STB-FJ05060; type: cell-based; conditions: Mycobacterium tuberculosis, STBFJ05060, 168 h
[4] = molecular target: T1, human dUTPase; assay: Surface plasmon resonance (SPR), human dUTPase; type: binding; conditions: human dUTPase on CM5 chip
[5] = tested on: M. tuberculosis standard strain H37Rv; assay: Microplate alamar blue assay (MABA), H37Rv; type: cell-based; conditions: Mycobacterium tuberculosis, 168 h
[6] = in vitro; type: cell-based; conditions: 24 h, CCK-8
Procedure: MRC-5, Vero E6, and Caco-2 cells were tested. […] Meanwhile, 2% DMSO was used as a negative control. After incubation for 24 h, 2-(2-methoxy-4-nitrophenyl)-3-(4-nitrophenyl)-5-(2,4-disulfophenyl)-2H-tetrazolium, monosodium salt (WST-8) was added. The experimental method referred to the kit instructions. All the experiments were repeated three times.

[7] = molecular target: M. tuberculosis dUTPase (Mt-dUTPase) (Mycobacterium tuberculosis, UniProt P9WNS5); type: biochemical
[8] = STB-FJ05349, MABA, 7 days at 37°C, read-out: MIC
[9] = STB-FJ05060, MABA, 7 days at 37°C, read-out: MIC
[10] = H37Rv, MABA, 7 days at 37°C, read-out: MIC

T1 sequence (P33316 other isoform, or with tags, fused parts or gaps): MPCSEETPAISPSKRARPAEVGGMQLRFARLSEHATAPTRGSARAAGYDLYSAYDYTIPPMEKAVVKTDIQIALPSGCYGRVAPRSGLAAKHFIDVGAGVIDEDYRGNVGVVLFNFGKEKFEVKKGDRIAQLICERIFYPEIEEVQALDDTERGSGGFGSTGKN
Chain of M. tuberculosis dUTPase (Mt-dUTPase) (P9WNS5 whole entry): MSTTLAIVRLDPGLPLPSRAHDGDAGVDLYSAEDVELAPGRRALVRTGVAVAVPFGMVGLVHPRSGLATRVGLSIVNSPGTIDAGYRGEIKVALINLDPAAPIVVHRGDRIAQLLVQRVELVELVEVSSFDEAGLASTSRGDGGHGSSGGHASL

## C=CCn1c(/C=C/c2ccccc2)nc2ccccc21 [F0414]
[1]; [8]
  MIC: 4 µg/mL (≈ 15.4 µM)
[2]; luminescence readout
  IC50: 3.18 ± 0.96 µM
[2]; same IC50 printed in μg/mL
  IC50: 3.19 µM
[3]; [9]
  MIC: 4 µg/mL (≈ 15.4 µM)
[4]
  SPR binding to human dUTPase: almost no RU signals
[5]; [10]
  MIC: 4 µg/mL (≈ 15.4 µM)
[6]; African green monkey, Vero E6 cells
  CC50: > 200 µM
[6]; African green monkey, Vero E6 cells, approximate conversion of >200 μM
  CC50: > 52 µg/mL
[6]; human, Caco2 cells
  CC50: > 200 µM
[6]; human, Caco2 cells, approximate conversion of >200 μM
  CC50: > 52 µg/mL
[6]; human, MRC-5 cells
  CC50: > 200 µM
[6]; human, MRC-5 cells, approximate conversion of >200 μM
  CC50: > 52 µg/mL

## NNC(=O)c1ccncc1 [Isoniazid]
[1]; [8]
  MIC: 0.5 µg/mL (≈ 3.65 µM)
[3]; [9]
  MIC: 0.5 µg/mL (≈ 3.65 µM)
[5]; [10]
  MIC: 0.25 µg/mL (≈ 1.82 µM)

## O=c1ccn([C@H]2C[C@H](O)[C@@H](COC(c3ccccc3)(c3ccccc3)c3ccccc3)O2)c(=O)[nH]1 [Trt-dU]
[7]; compound pre-incubated with enzyme 1 h at room temperature, luminescence readout
  IC50: 1.04 ± 0.08 µM
[7]; same IC50 printed in μg/ml
  IC50 (Mt-dUTPase): 0.49 ± 0.02 µg/mL (≈ 1.04 µM)

## CO[C@H]1/C=C/O[C@@]2(C)Oc3c(C)c(O)c4c(O)c(c(/C=N/N5CCN(C)CC5)c(O)c4c3C2=O)NC(=O)/C(C)=C\C=C\[C@H](C)[C@H](O)[C@@H](C)[C@@H](O)[C@@H](C)[C@H](OC(C)=O)[C@@H]1C [Rifampicin]
[1]
  MIC: 0.5 µg/mL (≈ 0.608 µM)
[3]
  MIC: 0.5 µg/mL (≈ 0.608 µM)
[5]; H37RV
  MIC: 0.25 µg/mL (≈ 0.304 µM)
